Measurements as given in publication PMC5218480 (PLoS ONE, 2017).

Tested on: MV-4-11 cells
Assay: Gene expression microarray analysis (Affymetrix PrimeView) and GSEA
Type: cell-based, human
Design: RFU PODN (11730768_x_at) / Fold change /veh PODN (11730768_x_at) / RFU LINC00158 (11744669_a_at) / Fold change /veh LINC00158 (11744669_a_at) / RFU DUSP10 (11751237_a_at) / Fold change /veh DUSP10 (11751237_a_at) / RFU ID3 (11757404_x_at) / Fold change /veh ID3 (11757404_x_at) / RFU PLEKHG5 (11737974_s_at) / Fold change /veh PLEKHG5 (11737974_s_at) / RFU LRRC4B (11730491_at) / Fold change /veh LRRC4B (11730491_at) / RFU GIMAP4 (11747438_a_at) / Fold change /veh GIMAP4 (11747438_a_at) / RFU KRT8 (11758183_x_at) / Fold change /veh KRT8 (11758183_x_at) / RFU CNN1 (11734310_a_at) / Fold change /veh CNN1 (11734310_a_at) / RFU VPS37D (11726825_at) / Fold change /veh VPS37D (11726825_at) / RFU C10orf10 (11716522_x_at) / Fold change /veh C10orf10 (11716522_x_at) / RFU KIR2DL2 /// KIR2DL4 /// KIR2DL5A /// KIR2DL5B /// KIR2DS1 /// KIR2DS2 /// KIR2DS3 /// KIR2DS4 /// KIR3DL3 /// KIR3DL3 /// KIR3DS1 (11738374_at) / Fold change /veh KIR2DL2 /// KIR2DL4 /// KIR2DL5A /// KIR2DL5B /// KIR2DS1 /// KIR2DS2 /// KIR2DS3 /// KIR2DS4 /// KIR3DL3 /// KIR3DL3 /// KIR3DS1 (11738374_at) / RFU C1QL1 (11718748_at) / Fold change /veh C1QL1 (11718748_at) / RFU TMPRSS4 (11747572_a_at) / Fold change /veh TMPRSS4 (11747572_a_at) / RFU HAMP (11756126_x_at) / Fold change /veh HAMP (11756126_x_at) / RFU RNFT2 (11725882_a_at) / Fold change /veh RNFT2 (11725882_a_at) / RFU NR4A2 (11747474_a_at) / Fold change /veh NR4A2 (11747474_a_at) / RFU ABCC12 (11746883_a_at) / Fold change /veh ABCC12 (11746883_a_at) / RFU TMEM136 (11760407_x_at) / Fold change /veh TMEM136 (11760407_x_at) / RFU CLDN22 /// WWC2 (11732394_at) / Fold change /veh CLDN22 /// WWC2 (11732394_at) / RFU HLA-DPB1 (11760878_x_at) / Fold change /veh HLA-DPB1 (11760878_x_at) / RFU SPINT1 (11716480_a_at) / Fold change /veh SPINT1 (11716480_a_at) / RFU GAP43 (11754022_s_at) / Fold change /veh GAP43 (11754022_s_at) / RFU A4GNT (11735810_at) / Fold change /veh A4GNT (11735810_at) / RFU PRB3 (11715151_x_at) / Fold change /veh PRB3 (11715151_x_at) / RFU TUBB4B (11761932_at) / Fold change /veh TUBB4B (11761932_at) / RFU CAPN14 (11732068_a_at) / Fold change /veh CAPN14 (11732068_a_at) / RFU TMCC2 (11721928_a_at) / Fold change /veh TMCC2 (11721928_a_at) / RFU IRGQ (11745062_a_at) / Fold change /veh IRGQ (11745062_a_at) / RFU FAM174B (11720279_a_at) / Fold change /veh FAM174B (11720279_a_at) / RFU TMPRSS4 (11748680_a_at) / Fold change /veh TMPRSS4 (11748680_a_at) / RFU FAM212B (11763350_a_at) / Fold change /veh FAM212B (11763350_a_at) / RFU PLEKHG5 (11743358_a_at) / Fold change /veh PLEKHG5 (11743358_a_at) / RFU ZSCAN30 (11745921_a_at) / Fold change /veh ZSCAN30 (11745921_a_at) / RFU CMKLR1 (11741424_a_at) / Fold change /veh CMKLR1 (11741424_a_at) / RFU LOC101060620 /// MAPK8IP1 (11723275_at) / Fold change /veh LOC101060620 /// MAPK8IP1 (11723275_at) / RFU SPTSSB (11747773_x_at) / Fold change /veh SPTSSB (11747773_x_at) / RFU PRSS12 (11739890_at) / Fold change /veh PRSS12 (11739890_at) / RFU BIN1 (11741810_x_at) / Fold change /veh BIN1 (11741810_x_at) / RFU WNT11 (11732464_a_at) / Fold change /veh WNT11 (11732464_a_at) / RFU C10orf10 (11716521_a_at) / Fold change /veh C10orf10 (11716521_a_at) / RFU C5orf56 (11738089_at) / Fold change /veh C5orf56 (11738089_at) / RFU CYB561 (11721691_x_at) / Fold change /veh CYB561 (11721691_x_at) / RFU ANKRD19P (11752326_a_at) / Fold change /veh ANKRD19P (11752326_a_at) / RFU OR2T12 /// OR2T33 /// OR2T8 (11738714_s_at) / Fold change /veh OR2T12 /// OR2T33 /// OR2T8 (11738714_s_at) / RFU VCAN (11748164_a_at) / Fold change /veh VCAN (11748164_a_at) / RFU JSRP1 (11732532_at) / Fold change /veh JSRP1 (11732532_at) / RFU KRTAP10-11 (11738290_x_at) / Fold change /veh KRTAP10-11 (11738290_x_at) / RFU MYO3A (11730013_a_at) / Fold change /veh MYO3A (11730013_a_at) / RFU EBF3 (11725865_a_at) / Fold change /veh EBF3 (11725865_a_at) / RFU CAMK2N1 (11719241_x_at) / Fold change /veh CAMK2N1 (11719241_x_at) / RFU C5orf56 (11738088_a_at) / Fold change /veh C5orf56 (11738088_a_at) / RFU OLFML3 (11715873_a_at) / Fold change /veh OLFML3 (11715873_a_at) / RFU LOC100653217 /// NTM (11731650_a_at) / Fold change /veh LOC100653217 /// NTM (11731650_a_at) / RFU MAPK11 (11762145_a_at) / Fold change /veh MAPK11 (11762145_a_at) / RFU FIZ1 (11724087_x_at) / Fold change /veh FIZ1 (11724087_x_at) / RFU OASL (11726364_x_at) / Fold change /veh OASL (11726364_x_at) / RFU SOX15 (11748057_x_at) / Fold change /veh SOX15 (11748057_x_at) / RFU CD79A (11719716_a_at) / Fold change /veh CD79A (11719716_a_at) / RFU HIST1H1D (11736915_at) / Fold change /veh HIST1H1D (11736915_at) / RFU CASKIN2 (11723855_a_at) / Fold change /veh CASKIN2 (11723855_a_at) / RFU LOC730098 (11760151_x_at) / Fold change /veh LOC730098 (11760151_x_at) / RFU OR4N2 (11742367_at) / Fold change /veh OR4N2 (11742367_at) / RFU PRRT2 (11749266_a_at) / Fold change /veh PRRT2 (11749266_a_at) / RFU SNX32 (11753110_a_at) / Fold change /veh SNX32 (11753110_a_at) / RFU CDHR5 (11726645_a_at) / Fold change /veh CDHR5 (11726645_a_at) / RFU RCAN1 (11760418_a_at) / Fold change /veh RCAN1 (11760418_a_at) / RFU FAM167A (11723789_a_at) / Fold change /veh FAM167A (11723789_a_at) / RFU FAM26E (11764081_at) / Fold change /veh FAM26E (11764081_at) / RFU ISYNA1 (11749810_s_at) / Fold change /veh ISYNA1 (11749810_s_at) / RFU ACY1 (11761880_at) / Fold change /veh ACY1 (11761880_at) / RFU 11764098_at / Fold change /veh 11764098_at / RFU SAMD14 (11745864_x_at) / Fold change /veh SAMD14 (11745864_x_at) / RFU NPB (11741838_a_at) / Fold change /veh NPB (11741838_a_at) / RFU TMPRSS6 (11731388_a_at) / Fold change /veh TMPRSS6 (11731388_a_at) / RFU KRTAP10-2 (11738614_at) / Fold change /veh KRTAP10-2 (11738614_at) / RFU ARHGAP8 /// PRR5-ARHGAP8 (11727945_x_at) / Fold change /veh ARHGAP8 /// PRR5-ARHGAP8 (11727945_x_at) / RFU KRTAP5-7 /// NADSYN1 (11734609_at) / Fold change /veh KRTAP5-7 /// NADSYN1 (11734609_at) / RFU RASL12 (11751679_a_at) / Fold change /veh RASL12 (11751679_a_at) / RFU CDKN2B (11736163_a_at) / Fold change /veh CDKN2B (11736163_a_at) / RFU PRF1 (11729649_at) / Fold change /veh PRF1 (11729649_at) / RFU, ZNF638 /// ZNF638-IT1 / Fold change vs veh, ZNF638 /// ZNF638-IT1 / RFU, PANK3 / Fold change vs veh, PANK3 / RFU, SH3YL1 / Fold change vs veh, SH3YL1 / RFU, ZEB2 / Fold change vs veh, ZEB2 / RFU, NRIP1 / Fold change vs veh, NRIP1 / RFU, PTTG1IP / Fold change vs veh, PTTG1IP / RFU, CAPN2 / Fold change vs veh, CAPN2 / RFU, MED14 / Fold change vs veh, MED14 / RFU, SNORA58 / Fold change vs veh, SNORA58 / RFU, C1orf63 / Fold change vs veh, C1orf63 / RFU, LRRFIP1 / Fold change vs veh, LRRFIP1 / RFU, NDUFAF7 / Fold change vs veh, NDUFAF7 / RFU, SLC12A2 / Fold change vs veh, SLC12A2 / RFU, IBTK / Fold change vs veh, IBTK / RFU, ESF1 / Fold change vs veh, ESF1 / Fold change vs veh, TMEM50B / RFU, TAOK1 / Fold change vs veh, TAOK1 / RFU, ACBD3 / Fold change vs veh, ACBD3 / RFU, TMA16 / Fold change vs veh, TMA16 / RFU, RWDD3 / Fold change vs veh, RWDD3 / RFU, BCAT1 / Fold change vs veh, BCAT1 / RFU, EDEM3 / Fold change vs veh, EDEM3 / RFU, TMEM33 / Fold change vs veh, TMEM33 / RFU, WDR75 / Fold change vs veh, WDR75 / RFU, AHCTF1 / Fold change vs veh, AHCTF1 / RFU, TFRC / Fold change vs veh, TFRC / RFU, ZDHHC17 / Fold change vs veh, ZDHHC17 / RFU, NOM1 / Fold change vs veh, NOM1 / RFU, ARL8B / Fold change vs veh, ARL8B / RFU, ZBTB11 / Fold change vs veh, ZBTB11 / RFU, TAMM41 / Fold change vs veh, TAMM41 / RFU, KIAA1704 /// LOC100996395 / Fold change vs veh, KIAA1704 /// LOC100996395 / RFU, ING1 / Fold change vs veh, ING1 / RFU, TRMT61B / Fold change vs veh, TRMT61B / RFU, FUBP3 / Fold change vs veh, FUBP3 / RFU, TP53 / Fold change vs veh, TP53 / RFU, TNKS2 / Fold change vs veh, TNKS2 / RFU, ZFP14 / Fold change vs veh, ZFP14 / RFU, ACTR2 / Fold change vs veh, ACTR2 / RFU, PPP3R1 / Fold change vs veh, PPP3R1 / RFU, PIK3R1 / Fold change vs veh, PIK3R1 / RFU, HNRNPA1 / Fold change vs veh, HNRNPA1 / RFU, RNF170 / Fold change vs veh, RNF170 / RFU, ZNF28 / Fold change vs veh, ZNF28 / RFU, RNGTT / Fold change vs veh, RNGTT / RFU, OGT / Fold change vs veh, OGT / RFU, BRD1 / Fold change vs veh, BRD1 / RFU, MARS / Fold change vs veh, MARS / RFU, ZNF655 / Fold change vs veh, ZNF655 / RFU, FAHD1 / Fold change vs veh, FAHD1 / RFU, BDP1 / Fold change vs veh, BDP1 / RFU, LRRCC1 / Fold change vs veh, LRRCC1 / RFU, ARID1A / Fold change vs veh, ARID1A / RFU, ZNF146 / Fold change vs veh, ZNF146 / RFU, ZNF330 / Fold change vs veh, ZNF330 / RFU, GPN3 / Fold change vs veh, GPN3 / RFU, C9orf123 / Fold change vs veh, C9orf123 / RFU, N4BP2L2 / Fold change vs veh, N4BP2L2 / RFU, ARFIP1 / Fold change vs veh, ARFIP1 / RFU, FAM179B / Fold change vs veh, FAM179B / RFU, BCL10 / Fold change vs veh, BCL10 / RFU, UHRF1BP1L / Fold change vs veh, UHRF1BP1L / RFU, BET1 / Fold change vs veh, BET1 / RFU, CNOT2 / Fold change vs veh, CNOT2 / RFU, ZNF268 / Fold change vs veh, ZNF268 / Fold change vs veh, ZNF507 / RFU, DGCR2 / Fold change vs veh, DGCR2 / RFU, WDSUB1 / Fold change vs veh, WDSUB1 / Fold change vs veh, HSP90B1 /// MIR3652 / RFU, ADSS / Fold change vs veh, ADSS / RFU, GK / Fold change vs veh, GK / RFU, ZNF148 / Fold change vs veh, ZNF148 / RFU, TAF9 / Fold change vs veh, TAF9 / RFU, SLC1A5 / Fold change vs veh, SLC1A5 / RFU, SLMO2 / Fold change vs veh, SLMO2 / RFU, ABCC4 / Fold change vs veh, ABCC4 / RFU, LOC101060439 /// RAP1B / Fold change vs veh, LOC101060439 /// RAP1B / RFU, RFX7 / Fold change vs veh, RFX7 / RFU, GTPBP10 / Fold change vs veh, GTPBP10 / RFU, CNEP1R1 / Fold change vs veh, CNEP1R1 / RFU, BIVM-ERCC5 /// ERCC5 / Fold change vs veh, BIVM-ERCC5 /// ERCC5 / RFU, ILF3 / Fold change vs veh, ILF3 / RFU 11762660_at / Fold change /veh 11762660_at / RFU VCAN (11757783_s_at) / Fold change /veh VCAN (11757783_s_at) / RFU DDX43 (11728927_at) / Fold change /veh DDX43 (11728927_at) / RFU KRT8 (11758188_x_at) / Fold change /veh KRT8 (11758188_x_at) / RFU NKD1 (11759106_at) / Fold change /veh NKD1 (11759106_at) / RFU SRD5A1 (11742802_a_at) / Fold change /veh SRD5A1 (11742802_a_at) / RFU TPSAB1 /// TPSB2 (11721975_s_at) / Fold change /veh TPSAB1 /// TPSB2 (11721975_s_at) / RFU GSTM3 (11746129_a_at) / Fold change /veh GSTM3 (11746129_a_at) / RFU IL23R (11737362_x_at) / Fold change /veh IL23R (11737362_x_at) / RFU TMEM51 (11727254_a_at) / Fold change /veh TMEM51 (11727254_a_at) / RFU PIWIL2 (11732686_x_at) / Fold change /veh PIWIL2 (11732686_x_at) / RFU ORM1 (11744905_x_at) / Fold change /veh ORM1 (11744905_x_at) / RFU CCDC152 (11743942_at) / Fold change /veh CCDC152 (11743942_at) / RFU ECM1 (11717891_a_at) / Fold change /veh ECM1 (11717891_a_at) / RFU IL23R (11748794_a_at) / Fold change /veh IL23R (11748794_a_at) / RFU TNFAIP8L3 (11732012_x_at) / Fold change /veh TNFAIP8L3 (11732012_x_at) / RFU MBOAT4 (11741988_at) / Fold change /veh MBOAT4 (11741988_at) / RFU 11764193_at / Fold change /veh 11764193_at / RFU TMEM53 (11763286_at) / Fold change /veh TMEM53 (11763286_at) / RFU MAGEB2 (11727129_at) / Fold change /veh MAGEB2 (11727129_at) / RFU TMEM200A (11744735_a_at) / Fold change /veh TMEM200A (11744735_a_at) / RFU CCDC152 (11751479_a_at) / Fold change /veh CCDC152 (11751479_a_at) / RFU FAM211A (11726209_a_at) / Fold change /veh FAM211A (11726209_a_at) / RFU RGS16 (11746705_a_at) / Fold change /veh RGS16 (11746705_a_at) / RFU VCAN (11755009_s_at) / Fold change /veh VCAN (11755009_s_at) / RFU RHOB (11743442_s_at) / Fold change /veh RHOB (11743442_s_at) / RFU RGS16 (11720943_a_at) / Fold change /veh RGS16 (11720943_a_at) / RFU RGS16 (11720944_at) / Fold change /veh RGS16 (11720944_at) / RFU, VPS4B / Fold change vs veh, VPS4B / RFU, CREB1 / Fold change vs veh, CREB1 / RFU, DNAJC13 / Fold change vs veh, DNAJC13 / RFU, GNAQ / Fold change vs veh, GNAQ / RFU, CDK5R1 / Fold change vs veh, CDK5R1 / RFU, ZRANB3 / Fold change vs veh, ZRANB3 / RFU, CUL4A / Fold change vs veh, CUL4A / RFU, CCNY / Fold change vs veh, CCNY / RFU, UFL1 / Fold change vs veh, UFL1 / RFU, COG3 / Fold change vs veh, COG3 / RFU, DIAPH2 / Fold change vs veh, DIAPH2 / RFU, SKA2 / Fold change vs veh, SKA2 / RFU, AFF3 / Fold change vs veh, AFF3 / RFU, LMF1 / Fold change vs veh, LMF1 / RFU, IPO11 / Fold change vs veh, IPO11 / RFU, DFFB / Fold change vs veh, DFFB / RFU, FOXP1 / Fold change vs veh, FOXP1 / RFU, CARD8 / Fold change vs veh, CARD8 / RFU, STRN3 / Fold change vs veh, STRN3 / RFU, ADK / Fold change vs veh, ADK / RFU, RASSF2 / Fold change vs veh, RASSF2 / RFU, WIPF1 / Fold change vs veh, WIPF1 / RFU, LARP1B / Fold change vs veh, LARP1B / RFU, RASA1 / Fold change vs veh, RASA1 / RFU, RB1 / Fold change vs veh, RB1 / RFU, PPFIA1 / Fold change vs veh, PPFIA1 / RFU, MAT2A / Fold change vs veh, MAT2A / RFU, CCT5 / Fold change vs veh, CCT5 / RFU, WDR92 / Fold change vs veh, WDR92 / RFU, CUX1 / Fold change vs veh, CUX1 / RFU, TTC7A / Fold change vs veh, TTC7A / RFU, TMEM135 / Fold change vs veh, TMEM135 / RFU, DEPTOR / Fold change vs veh, DEPTOR / RFU, CPM / Fold change vs veh, CPM / RFU, DNAJB6 / Fold change vs veh, DNAJB6 / RFU, CACNA2D3 / Fold change vs veh, CACNA2D3 / RFU, DTX4 / Fold change vs veh, DTX4 / RFU, TFCP2 / Fold change vs veh, TFCP2 / RFU, GMCL1 /// GMCL1P1 / Fold change vs veh, GMCL1 /// GMCL1P1 / RFU, AEBP2 / Fold change vs veh, AEBP2 / RFU, SNHG1 /// SNORD22 /// SNORD25 /// SNORD26 /// SNORD27 /// SNORD28 /// SNORD29 /// SNORD31 / Fold change vs veh, SNHG1 /// SNORD22 /// SNORD25 /// SNORD26 /// SNORD27 /// SNORD28 /// SNORD29 /// SNORD31 / Fold change (Aza/veh), C12orf56 (ProbeSet 11735607_a_at) / Fold change (ACY-1035/veh), C12orf56 (ProbeSet 11735607_a_at) / Fold change (Aza/veh), FGFR1OP (ProbeSet 11751329_s_at) / Fold change (ACY-1035/veh), FGFR1OP (ProbeSet 11751329_s_at) / Fold change (Aza/veh), VPS36 (ProbeSet 11739960_a_at) / Fold change (ACY-1035/veh), VPS36 (ProbeSet 11739960_a_at) / RFU SYPL1 (11715823_x_at) / Fold change /veh SYPL1 (11715823_x_at) / RFU IGFBP7 (11715501_s_at) / Fold change /veh IGFBP7 (11715501_s_at) / RFU REEP3 (11722064_at) / Fold change /veh REEP3 (11722064_at) / RFU IGLL1 (11728026_x_at) / Fold change /veh IGLL1 (11728026_x_at): dose or concentration left out as unconfirmed
Settings: ProbeSet 11717702_a_at; LIST D

## Nc1ccc(-c2cccs2)cc1NC(=O)c1ccc2c(c1)cc(C1CC1)n2CCN1CCOCC1 [ACY-1035]
  RFU, RB1: 245.16 RFU
